The molecules below were run against T1, KCNQ2/3 potassium ion channel (Homo sapiens, UniProt O43525+O43526) (assay: KCNQ2/3 potassium ion channel activation assay (whole-cell patch clamp, hKCNQ-CHO cells)). Conditions: test concentration 0.05 μM, read-out: Enhancment % (current enhancement multiple).
T1 construct: expressed in transfected cells; host or cells: CHO cells (hKCNQ-CHO)
Assay type: cell-based
Procedure: Example 64: KCNQ2/3 Potassium Ion Channel Activation Assay
hKCNQ-CHO cells were cultured at 37° C. in a humidified environment of 5% CO2.
• 2.1. Extracellular fluid (mM): NaCl 145, KCl 4, CaCl2 2, MgCl2 1, Glucose 10, HEPES 10. The pH value of the extracellular fluid was adjusted to 7.4 with NaOH, and the osmotic pressure was adjusted to about 295 mOsm. • 2.2. Intracellular fluid (mM (mmol/L)): KOH 31.25, KCl 120, EGTA 10, MgCl2 1.75, CaCl2 5.374, HEPES 10, Na-ATP 4. The pH value of the intracellular fluid was adjusted to 7.4 with HCl, and the osmotic pressure was adjusted to about 285 mOsm. • 2.3. The extracellular fluid should be prepared once a week, and the intracellular fluid should be stored at −20° C. after preparation.
The model positive reference compound Retigabine (RTG) was dissolved with 100% DMSO and configured as a 10 mM working solution. The test compounds were dissolved with 100% DMSO and configured as a 10 mM working solution. The final concentration of DMSO in the test solution should be less than 0.3%.
Whole-cell patch clamp was performed at room temperature. The electrical signals recorded with the EPC 10 USB amplifier (HEKA Elektronik, Germany) were filtered by a 3 kHz low-pass filter, and finally recorded in PatchMaster 2×90.5 software (HEKA Elektronik, Germany). At this step, the quality control standard was that the cell high-resistance sealing was greater than 500 MOhms, and the detection current was greater than 0.4 nA.
The recording electrodes were pulled out and polished with a vertical puller (NARISHIGE PC-10, Japan) using a borosilicate glass capillary (GC150tF-10, Harvard Apparatus Co., UK). At this step, the quality control standard was that the electrode resistance was between 2 MΩ and 5 MΩ.
During the recording process of the whole-cell patch clamp, a continuous perfusion system (BT100-2J, LongerPump, China) was used to continuously perfuse the extracellular fluid. The perfusion system was installed on the stage of an upright microscope (FN-S2N, Nikon, Japan), and the perfusion head was manually positioned under the microscope.
The voltage command for detecting the amplitude of hKCNQ current was as follows: the cell stepped from the clamping potential of −80 mV to −30 mV, and held for 1500 ms; and then the clamping voltage was lowered to −120 my and held for 500 ms; finally, the voltage returned to the clamping potential of −80 mV. The detection voltage command was repeated every 15,000 milliseconds, and the command was continuously executed during the compound test. The quality control standard for compound action stability was the current amplitude under 5 consecutive voltage commands, and the coefficient of variation of the current amplitude was <5%.
Data analysis was performed using PatchMaster 2×90.5 software (HEKA Elektronik, Germany) and Excel 2013 (Microsoft, USA) software. For each cell's patch clamp recording, the amplitude of the hKCNQ channel current (Itest) corresponding to the test compound concentration should be obtained. The enhanced channel current was obtained by subtracting the cell's original channel current (Icontrol) from Itest and dividing by Icontrol to obtain the current enhancement multiple. That is, the current enhancement multiple (Enhancment %)=(Itest −Icontrol)/Icontrol[…].

| activation at 0.05 µM | Compound |
| --- | --- |
| < 50% | CCOc1ccc2c(c1)CCCN(c1cc(C)c(NC(=O)CC(C)(C)C)c(C)c1)C2 [Compound 002, N-(4-(7-ethoxy-1,3,4,5-tetrahydro-2H-benzo[c]azepin-2-yl)-2,6-dimethylphenyl)-3,3-dimethylbutanamide] |
| < 50% | CC1=CCN(c2cc(C)c(NC(=O)CC(C)(C)C)c(C)c2)Cc2ccc(F)cc21 [Compound 028, N-(4-(7-fluoro-5-methyl-1,3-dihydro-2H-benzo[c]azepin-2-yl)-2,6-dimethylphenyl)-3,3-dimethylbutanamide] |

Same assay, conditions: test concentration 3 μM, numeric value

| Enhancment % (activation activity on KCNQ2/3 potassium ion channel) | Compound |
| --- | --- |
| 41.39% | Cc1cc(N2CCCc3cc(F)ccc3C2)cc(C)c1NC(=O)CC(C)(C)C [a, reference compound] |

Same assay, conditions: test concentration 3 μM, read-out: Enhancment % (current enhancement multiple)

| activation at 3 µM | Compound |
| --- | --- |
| > 100% | Cc1cc(N2CCCc3cc(OCC(F)(F)F)ccc3C2)cc(C)c1NC(=O)CC(C)(C)C [Compound 007, N-(2,6-dimethyl-4-(7-(2,2,2-trifluoroethoxy)-1,3,4,5-tetrahydro-2H-benzo[c]azepin-2-yl)phenyl)-3,3-dimethylbutanamide] |
| > 100% | Cc1cc(N2CCCc3cc(F)c(F)cc3C2)cc(C)c1NC(=O)CC(C)(C)C [Compound 047, N-(4-(7,8-difluoro-1,3,4,5-tetrahydro-2H-benzo[c]azepin-2-yl)-2,6-dimethylphenyl)-3,3-dimethylbutanamide] |
| > 100% | Cc1cc(N2CCCc3cc(OCCOCC(F)(F)F)ccc3C2)cc(C)c1NC(=O)CC(C)(C)C [Compound 056, N-(2,6-dimethyl-4-(7-(2-(2,2,2-trifluoroethoxy)ethoxy)-1,3,4,5-tetrahydro-2H-benzo[c]azepin-2-yl)phenyl)-3,3-dimethylbutanamide] |
| > 100% | Cc1cc(N2CCCc3cc(S(C)(=O)=O)ccc3C2)cc(C)c1NC(=O)CC(C)(C)C [Compound 015, N-(2,6-dimethyl-4-(7-(methylsulfonyl)-1,3,4,5-tetrahydro-2H-benzo[c]azepin-2-yl)phenyl)-3,3-dimethylbutanamide] |
| > 100% | Cc1cc(N2CCCc3cc(OC4CCCCC4)c(F)cc3C2)cc(C)c1NC(=O)CC(C)(C)C [Compound 045, N-(4-(7-(cyclohexyloxy)-8-fluoro-1,3,4,5-tetrahydro-2H-benzo[c]azepin-2-yl)-2,6-dimethylphenyl)-3,3-dimethylbutanamide] |
| > 100% | Cc1cc(N2CCSc3cc(F)ccc3C2)cc(C)c1NC(=O)CC(C)(C)C [Compound 025, N-(4-(8-fluoro-2,3-dihydrobenzo[f][1,4]thiazepin-4(5H)-yl)-2,6-dimethylphenyl)-3,3-dimethylbutanamide] |
| > 100% | COC(Oc1ccc2c(c1)CCCN(c1cc(C)c(NC(=O)CC(C)(C)C)c(C)c1)C2)C(F)(F)F (centres unmarked) [Compound 052, N-(2,6-dimethyl-4-(7-(2,2,2-trifluoro-1-methoxyethoxy)-1,3,4,5-tetrahydro-2H-benzo[c]azepin-2-yl)phenyl)-3,3-dimethylbutanamide] |
| > 100% | Cc1cc(N2CCCc3cc(OC4CCC(C(F)(F)F)CC4)ccc3C2)cc(C)c1NC(=O)CC(C)(C)C (centres unmarked) [Compound 059, N-(2,6-dimethyl-4-(7-((4-(trifluoromethyl)cyclohexyl)oxy)-1,3,4,5-tetrahydro-2H-benzo[c]azepin-2-yl)phenyl)-3,3-dimethylbutanamide] |
| 50 to 100% | CCOc1ccc2c(c1)CCCN(c1cc(C)c(NC(=O)CC(C)(C)C)c(C)c1)C2 [Compound 002, N-(4-(7-ethoxy-1,3,4,5-tetrahydro-2H-benzo[c]azepin-2-yl)-2,6-dimethylphenyl)-3,3-dimethylbutanamide] |
| > 100% | Cc1cc(N2CCS(=O)(=O)c3cc(F)ccc3C2)cc(C)c1NC(=O)CC(C)(C)C [Compound 026, N-(4-(8-fluoro-1,1-dioxido-2,3-dihydrobenzo[f][1,4]thiazepin-4(5H)-yl)-2,6-dimethylphenyl)-3,3-dimethylbutanamide] |
| > 100% | Cc1cc(N2CCCc3cc(O[C@@H](C)C(F)(F)F)c(F)cc3C2)cc(C)c1NC(=O)CC(C)(C)C [Compound 036, (S)—N-(4-(8-fluoro-7-((1,1,1-trifluoropropan-2-yl)oxy)-1,3,4,5-tetrahydro-2H-benzo[c]azepin-2-yl)-2,6-dimethylphenyl)-3,3-dimethylbutanamide] |
| > 100% | Cc1cc(N2CCCc3cc(OC4COC4)ccc3C2)cc(C)c1NC(=O)CC(C)(C)C [Compound 013, N-(2,6-dimethyl-4-(7-(oxetan-3-yloxy)-1,3,4,5-tetrahydro-2H-benzo[c]azepin-2-yl)phenyl)-3,3-dimethylbutanamide] |
| > 100% | Cc1cc(N2CCCc3cc(OC/C=C/C(F)(F)F)ccc3C2)cc(C)c1NC(=O)CC(C)(C)C [Compound 050, (E)-N-(2,6-dimethyl-4-(7-((4,4,4-trifluorobut-2-en-1-yl)oxy)-1,3,4,5-tetrahydro-2H-benzo[c]azepin-2-yl)phenyl)-3,3-dimethylbutanamide] |
| > 100% | Cc1cc(N2CCCc3cc(OC(C)C(F)(F)F)c(F)cc3C2)cc(C)c1NC(=O)CC(C)(C)C (centres unmarked) [Compound 034, N-(4-(8-fluoro-7-((1,1,1-trifluoropropan-2-yl)oxy)-1,3,4,5-tetrahydro-2H-benzo[c]azepin-2-yl)-2,6-dimethylphenyl)-3,3-dimethylbutanamide] |
| 50 to 100% | CC1=CCN(c2cc(C)c(NC(=O)CC(C)(C)C)c(C)c2)Cc2ccc(F)cc21 [Compound 028, N-(4-(7-fluoro-5-methyl-1,3-dihydro-2H-benzo[c]azepin-2-yl)-2,6-dimethylphenyl)-3,3-dimethylbutanamide] |
| 50 to 100% | Cc1cc(N2CCN(C)c3cc(F)ccc3C2)cc(C)c1NC(=O)CC(C)(C)C [Compound 024, N-(4-(8-fluoro-1-methyl-1,2,3,5-tetrahydro-4H-benzo[e][1,4]diazepin-4-yl)-2,6-dimethylphenyl)-3,3-dimethylbutanamide] |
| > 100% | Cc1cc(N2CCCc3cc(OCC(C)C(F)(F)F)ccc3C2)cc(C)c1NC(=O)CC(C)(C)C (centres unmarked) [Compound 053, N-(2,6-dimethyl-4-(7-(3,3,3-trifluoro-2-methylpropoxy)-1,3,4,5-tetrahydro-2H-benzo[c]azepin-2-yl)phenyl)-3,3-dimethylbutanamide] |
| > 100% | Cc1cc(N2CCC3(CC3)c3cc(F)c(F)cc3C2)cc(C)c1NC(=O)CC(C)(C)C [Compound 049, N-(4-(7,8-difluoro-3,4-dihydrospiro[benzo[c]azepine-5,1′-cyclopropan]-2(1H)-yl)-2,6-dimethylphenyl)-3,3-dimethylbutanamide] |
| > 100% | Cc1cc(N2CCCc3cc(OC(F)(F)F)ccc3C2)cc(C)c1NC(=O)CC(C)(C)C [Compound 006, N-(2,6-dimethyl-4-(7-(trifluoromethoxy)-1,3,4,5-tetrahydro-2H-benzo[c]azepin-2-yl)phenyl)-3,3-dimethylbutanamide] |
| > 100% | Cc1cc(N2CCCc3cc(OC45CC(C(F)F)(C4)C5)ccc3C2)cc(C)c1NC(=O)CC(C)(C)C [Compound 051, N-(4-(7-((3-(difluoromethyl)bicyclo[1.1.1]pentan-1-yl)oxy)-1,3,4,5-tetrahydro-2H-benzo[c]azepin-2-yl)-2,6-dimethylphenyl)-3,3-dimethylbutanamide] |
| > 100% | Cc1cc(N2CCCc3cc(OC4CCCC4)c(F)cc3C2)cc(C)c1NC(=O)CC(C)(C)C [Compound 044, N-(4-(7-(cyclopentyloxy)-8-fluoro-1,3,4,5-tetrahydro-2H-benzo[c]azepin-2-yl)-2,6-dimethylphenyl)-3,3-dimethylbutanamide] |

| Compound | activation at 3 µM |
| --- | --- |
| Cc1cc(N2CCCc3cc(OC4CCC4)c(F)cc3C2)cc(C)c1NC(=O)CC(C)(C)C [Compound 043, N-(4-(7-cyclobutoxy-8-fluoro-1,3,4,5-tetrahydro-2H-benzo[c]azepin-2-yl)-2,6-dimethylphenyl)-3,3-dimethylbutanamide] | > 100% |
| Cc1cc(N2CCCc3cc(OCC(F)(F)CC(F)(F)F)ccc3C2)cc(C)c1NC(=O)CC(C)(C)C [Compound 062, N-(2,6-dimethyl-4-(7-(2,2,4,4,4-pentafluorobutoxy)-1,3,4,5-tetrahydro-2H-benzo[c]azepin-2-yl)phenyl)-3,3-dimethylbutanamide] | > 100% |
